Measured values from article PMC2995924 (International journal of high throughput screening, 2010).
Read-outs that look alike come from different tables or passages of the source.

Tests used:
rat S100B [1] = target: T1, rat S100B (Rattus norvegicus, UniProt P04631); experiment: Fluorescence polarization competition assay; type: binding
T1 sequence (P04631 1-92): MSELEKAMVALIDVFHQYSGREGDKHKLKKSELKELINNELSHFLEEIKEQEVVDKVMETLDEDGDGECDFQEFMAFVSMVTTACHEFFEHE

Ca2+-bound S100B = target: T2, Ca2+-bound S100B (Rattus norvegicus, UniProt P04631); experiment: NMR 1H-15N HSQC chemical shift perturbation secondary screen; type: binding; conditions: for NMR (confirmed to bind S100B via NMR HSQC experiments): 10-fold excess compound versus S100B (100 μM; 10 mM Ca2+)
T2 sequence (P04631 1-92): T1 sequence (P04631 1-92)

S100B = target: T3, S100B (Rattus norvegicus, UniProt P04631); experiment: Binding monitored by change in the compound's intrinsic fluorescence
T3 sequence (P04631 1-92): T1 sequence (P04631 1-92)

rat S100B [2] = target: T1, rat S100B; experiment: Fluorescence polarization binding assay of labeled peptides; conditions: Ca2+-S100B
TAMRA-TRTK = experiment: fluorescence polarisation

Compound | IC50 (rat S100B [1]) [µM] | Kd (rat S100B [1]) [µM] | NMR (confirmed to bind S100B via NMR HSQC experiments) (Ca2+-bound S100B) | also measured
CN(C)CCCN1c2ccccc2Sc2ccc(Cl)cc21 [SC0067, chlorpromazine] | 2220 ± 1360 | 697 ± 428 | – | –
C[n+]1cc2c3c(ccc2c2ccc4cc5c(cc4c21)OCO5)OCO3 [SC0844, sanguinarine] | 35.9 ± 16.4 | 10.7 ± 4.9 | Yes | Kd (S100B): 5.8 µM
O=C(O)c1ccccc1S [thiosalicylic acid] | – | – | – | Chemical shift perturbations of the HSQC NMR spectra (Ca2+-bound S100B; 1 mM compound added to 100 μM S100B, fast-exchange regime): significant chemical shift perturbations; Inhibition of TAMRA-TRTK binding in the FPCA (rat S100B [1]; even at 2.5 mM compound): did not significantly inhibit
FITC-p53_367–393: FITC-labeled peptide of human p53 residues 367–393 | – | – | – | Affinity (KD) of FITC-labeled peptide compared with unlabeled version (rat S100B [2]): significantly higher affinity than the unlabeled version
C[CH2][Hg][S]c1ccccc1C(=O)[O-].[Na+] [SC0332, thimerosal] | – | – | Yes | Kd (rat S100B [1]; calculated from FPCA IC50 with the equation of Nikolovska-Coleska et al): 55.2 ± 5.1 µM
C68/84S mutant rat S100B (natural protein) | – | – | – | Kd (TAMRA-TRTK): 2.42 µM
